Reference: ChEMBL document CHEMBL4390669, “C-6α- vs C-7α-Substituted Steroidal Aromatase Inhibitors: Which Is Better? Synthesis, Biochemical Evaluation, Docking Studies, and Structure-Activity Relationships” (J Med Chem, 2019)
pIC50, pKi: −log10 of the molar value. Activity calls are given as the source filed them. The calls are words filed in the database; no cut-off is given here.

Experiments:
[1] = target: T1, Aromatase (Homo sapiens, UniProt P11511); test: Inhibition of […] aromatase expressed in human MCF7 cells at 10 uM using [1beta3H]-androstenedione as substrate measured after 1 hr in presence of progesterone relative to control
T1 sequence (P11511 whole entry): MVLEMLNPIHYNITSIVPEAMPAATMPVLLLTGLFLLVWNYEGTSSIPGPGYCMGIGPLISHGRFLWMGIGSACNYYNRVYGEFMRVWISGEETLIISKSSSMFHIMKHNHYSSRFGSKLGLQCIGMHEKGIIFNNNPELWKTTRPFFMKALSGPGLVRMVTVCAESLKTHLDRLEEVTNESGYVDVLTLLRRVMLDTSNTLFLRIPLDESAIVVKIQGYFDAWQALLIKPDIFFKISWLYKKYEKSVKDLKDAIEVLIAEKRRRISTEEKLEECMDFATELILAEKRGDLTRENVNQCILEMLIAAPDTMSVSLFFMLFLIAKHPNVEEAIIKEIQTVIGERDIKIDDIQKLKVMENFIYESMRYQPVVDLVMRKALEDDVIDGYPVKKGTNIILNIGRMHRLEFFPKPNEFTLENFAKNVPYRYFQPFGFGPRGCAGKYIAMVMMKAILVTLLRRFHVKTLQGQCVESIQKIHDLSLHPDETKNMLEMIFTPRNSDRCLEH

[2] = target: T1, Aromatase; test: Inhibition of human placental microsome aromatase using [1beta3H]-androstenedione as substrate measured after 15 mins in presence of NADPH by liquid scintillation counting method; assay type: microsomes, Placenta; conditions: for inhibition (INH): human, microsomes, 0.25 h
[3] = target: T1, Aromatase; test: Inhibition of human placental microsome aromatase at 2 uM using [1beta3H]-androstenedione as substrate measured after 15 mins in presence of NADPH by liquid scintillation counting method relative to control; assay type: microsomes, Placenta; conditions: 0.25 h
[4] = target: T1, Aromatase; test: Competitive reversible inhibition of human placental microsome aromatase using varying levels of [1beta3H]-androstenedione as substrate measured after 5 mins in presence of NADPH by Lineweaver-burk plot analysis; set-up: species or system Placenta; conditions: microsomes
[5] = target: T1, Aromatase; test: Competitive reversible inhibition of human placental microsome aromatase using varying levels of [1beta3H]-androstenedione as substrate measured after 5 mins in presence of NADPH by Dixon-plot analysis; assay type: microsomes, Placenta; conditions: read-out: Ki(app)
[6] = target: T1, Aromatase; test: Competitive irreversible inhibition of human placental microsome aromatase using varying levels of [1beta3H]-androstenedione as substrate measured after 5 mins in presence of NADPH by Dixon-plot analysis; assay type: microsomes, Placenta; conditions: read-out: Ki(app)
[7] = target: T1, Aromatase; test: Ratio of Km to Ki for human placental microsome aromatase using varying levels of [1beta3H]-androstenedione as substrate measured after 5 mins in presence of NADPH by Dixon-plot analysis; set-up: species or system Placenta; conditions: microsomes
[8] = target: T1, Aromatase; test: Competitive reversible inhibition of human placental microsome aromatase assessed as substrate Vmax per ug protein using varying levels of [1beta3H]-androstenedione as substrate measured after 5 mins in presence of NADPH by Dixon-plot analysis; set-up: species or system Placenta; conditions: microsomes
[9] = tested on: MCF7; test: Induction of crystal formation in human MCF7 cells transfected with human placental microsome aromatase at 10 uM measured after 1 hr; assay type: functional, cell-based
[10] = target: T1, Aromatase; test: Competitive irreversible inhibition of human placental microsome aromatase using varying levels of [1beta3H]-androstenedione as substrate measured after 5 mins in presence of NADPH by Lineweaver-burk plot analysis; set-up: species or system Placenta; conditions: microsomes

SMILES | inhibition at 10 µM [1] [%] | pIC50 [2] | inhibition at 2 µM [3] [%] | other results
C[C@@H]1CC2=CCCC[C@]2(C)[C@H]2CC[C@]3(C)C(=O)CC[C@H]3[C@H]12 | 89.5 | 6.39 | 97.4 | –
C[C@@H]1CC2=CC(=O)CC[C@]2(C)[C@H]2CC[C@]3(C)C(=O)CC[C@H]3[C@H]12 | 90.8 | 6.57 | 94.3 | –
C[C@]12CCC(=O)C(O)=C1CC[C@@H]1[C@@H]2CC[C@]2(C)C(=O)CC[C@@H]12 [FORMESTANE] | 97.1 | – | 99.2 | –
C=CC[C@H]1C[C@@H]2[C@H](CC[C@]3(C)C(=O)CC[C@@H]23)[C@@]2(C)CCC(=O)C=C12 | 96.5 | 6.98 | 97.2 | inhibition (INH) [2]: Dose-dependent effect
C[C@@H]1C[C@@H]2[C@H]3O[C@H]3CC[C@]2(C)[C@H]2CC[C@]3(C)C(=O)CC[C@H]3[C@H]12 | – | – | 13.7 | –
C[C@H]1C[C@@H]2[C@H](CC[C@]3(C)C(=O)CC[C@@H]23)[C@@]2(C)CCC(=O)C=C12 | 98.6 | 7.22 | 98.7 | inhibition (INH) [4]: Active; pKi [5]: 7.60; inhibition (INH) [2]: Dose-dependent effect; pKi [6]: 7.65; Ratio [7]: 2.53; Vmax [8]: 0.0191 nmol/min
C[C@H]1C[C@@H]2[C@H](CC[C@]3(C)C(=O)CC[C@@H]23)[C@@]2(C)CCCC=C12 | – | 6.77 | 96.7 | Activity [9]: Active
C[C@H]1C[C@H]2[C@@H]3CCC(=O)[C@@]3(C)CC[C@@H]2[C@@]2(C)CCC[C@H]3O[C@]132 | – | – | 58.7 | –
C[C@@H]1C[C@@]23O[C@@H]2CCC[C@]3(C)[C@H]2CC[C@]3(C)C(=O)CC[C@H]3[C@H]12 | – | – | 64.9 | –
C[C@]12CCC(=O)C=C1[C@H](O)C[C@@H]1[C@@H]2CC[C@]2(C)C(=O)CC[C@@H]12 | 88.2 | 6.08 | 88.6 | –
C=CC[C@@H]1CC2=C(O)C(=O)CC[C@]2(C)[C@H]2CC[C@]3(C)C(=O)CC[C@H]3[C@H]12 | – | 6.96 | 91.8 | inhibition (INH) [2]: Dose-dependent effect; Activity [9]: Active
C[C@H]1C[C@@H]2[C@H](CC[C@]3(C)C(=O)CC[C@@H]23)[C@@]2(C)CC[C@H]3O[C@H]3[C@H]12 | 84.2 | 6.76 | 96.7 | –
C=CC[C@@H]1CC2=CC(=O)C=C[C@]2(C)[C@H]2CC[C@]3(C)C(=O)CC[C@H]3[C@H]12 | 96.3 | – | – | –
C=CC[C@H]1C[C@@H]2[C@H](CC[C@]3(C)C(=O)CC[C@@H]23)[C@@]2(C)C=CC(=O)C=C12 | 99.2 | 7.26 | 97.6 | inhibition (INH) [2]: Dose-dependent effect; Ratio [7]: 2.81; inhibition (INH) [10]: Active
C[C@H]1C[C@@H]2[C@H](CC[C@]3(C)C(=O)CC[C@@H]23)[C@@]2(C)CCC=C[C@H]12 | 88.7 | 6.25 | 93.5 | –
C=CC[C@H]1C[C@@H]2[C@H](CC[C@]3(C)C(=O)CC[C@@H]23)[C@@]2(C)CCCC=C12 | 84.1 | 6.68 | 92.4 | –
C[C@]12CCC(=O)C=C1C[C@@H](O)[C@@H]1[C@@H]2CC[C@]2(C)C(=O)CC[C@@H]12 | – | – | 49.8 | –
C=CC[C@H]1C[C@@H]2[C@H](CC[C@]3(C)C(=O)CC[C@@H]23)[C@@]2(C)CCC(=O)C(O)=C12 | 80.7 | 6.28 | 90.1 | –
C[C@]12CCC(=O)C=C1[C@@H](O)C[C@@H]1[C@@H]2CC[C@]2(C)C(=O)CC[C@@H]12 | 88.4 | 6.06 | 90.7 | –
C=CC[C@@H]1CC2=CC(=O)CC[C@]2(C)[C@H]2CC[C@]3(C)C(=O)CC[C@H]3[C@H]12 | 92.6 | – | – | –
C=CC[C@@H]1CC2=CCCC[C@]2(C)[C@H]2CC[C@]3(C)C(=O)CC[C@H]3[C@H]12 | 74.7 | – | – | –
C[C@H]1C[C@H]2[C@@H]3CCC(=O)[C@@]3(C)CC[C@@H]2[C@@]2(C)CCC[C@@H]3O[C@]312 | – | – | 76.2 | –
